# Several values for one entry are separate records, joined by “and”; a condition that tells them apart may be missing. Identical values can stand only once. Non-standard residues stand in square brackets, D forms with d. Residues, ends and D or L forms follow the SMILES beside them. Lys(thiomyristoyl) = CCCCCCCCCCCCCC(=S)NCCCC[C@H](N)C(=O)O
# T1: SIRT2 (Homo sapiens, UniProt Q8IXJ6)
# T1 sequence (Q8IXJ6 1-389): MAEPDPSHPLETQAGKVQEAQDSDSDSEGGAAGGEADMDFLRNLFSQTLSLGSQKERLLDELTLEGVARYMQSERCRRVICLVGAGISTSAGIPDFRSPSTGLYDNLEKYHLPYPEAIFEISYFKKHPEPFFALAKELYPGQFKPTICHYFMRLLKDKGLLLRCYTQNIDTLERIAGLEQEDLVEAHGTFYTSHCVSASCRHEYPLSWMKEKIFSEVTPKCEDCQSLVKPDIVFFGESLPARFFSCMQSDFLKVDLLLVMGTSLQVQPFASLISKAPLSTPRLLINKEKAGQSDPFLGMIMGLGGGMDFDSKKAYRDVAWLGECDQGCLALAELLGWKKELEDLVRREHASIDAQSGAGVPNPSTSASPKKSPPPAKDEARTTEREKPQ
# T2: SIRT1 (Homo sapiens, UniProt Q96EB6)
# T2 sequence (Q96EB6 1-747): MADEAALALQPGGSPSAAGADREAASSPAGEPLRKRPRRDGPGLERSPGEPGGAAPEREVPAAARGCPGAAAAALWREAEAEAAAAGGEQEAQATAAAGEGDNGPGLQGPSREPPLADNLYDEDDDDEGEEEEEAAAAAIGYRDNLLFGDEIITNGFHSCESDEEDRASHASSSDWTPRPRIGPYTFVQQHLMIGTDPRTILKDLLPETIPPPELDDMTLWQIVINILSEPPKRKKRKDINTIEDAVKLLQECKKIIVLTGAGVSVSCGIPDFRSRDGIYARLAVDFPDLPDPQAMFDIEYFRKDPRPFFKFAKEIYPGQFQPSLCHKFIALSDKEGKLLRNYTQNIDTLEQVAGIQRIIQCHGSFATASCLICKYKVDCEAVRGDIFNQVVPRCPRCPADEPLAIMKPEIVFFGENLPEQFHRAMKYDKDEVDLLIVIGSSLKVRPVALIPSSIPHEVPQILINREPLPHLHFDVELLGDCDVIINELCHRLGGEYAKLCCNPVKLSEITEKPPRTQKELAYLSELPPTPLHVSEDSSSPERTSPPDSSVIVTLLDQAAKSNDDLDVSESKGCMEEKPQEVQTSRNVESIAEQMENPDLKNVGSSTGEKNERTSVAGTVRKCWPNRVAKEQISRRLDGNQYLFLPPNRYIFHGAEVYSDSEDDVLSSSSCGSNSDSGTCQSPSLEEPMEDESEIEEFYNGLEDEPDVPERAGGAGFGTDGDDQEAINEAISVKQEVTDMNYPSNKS
# Experiments:
# [1] = target: T1, SIRT2; experiment: SIRT2 inhibition assay, no preincubation; format: biochemical
# Description: The inhibition assay was performed using a universal continuous sirtuin substrate. Assays were performed in 40-µL volumes at 37 °C in black, 384-well plates. Five micrometers of substrate was incubated with different concentrations of peptide or TM (0.5–1000 nM in DMF, 20% DMF final concentration) for 2 min in assay buffer (20 mM Tris, pH 7.8, 150 mM NaCl, 5 mM MgCl2, 1 mM DTT, and 1 mM NAD^+). Following incubation, the reaction started with the addition of SIRT2 (10 nM), and product formation was monitored by measuring the fluorescence intensity every 20 s for 10 min (SIRT2) in a BioTek Synergy H1 microplate reader at λex = 320 nm and λem = 408 nm (gain = 130 and read height = 7 mm). Initial rates were determined using the plot of fluorescence vs. time for linear portions of each curve. The IC50 value was determined using GraphPad Prism to fit a nonlinear regression to the normalized rates vs. inhibitor concentration (Supplementary Fig. 30).
# [2] = target: T1, SIRT2; experiment: SIRT2 inhibition assay for thiomyristoyl peptides; format: biochemical
# Description: Assays were performed in 40-µL volumes at 37 °C in black, 384-well plates. […] Following incubation, the reaction started with the addition of the fluorogenic substrate (5 µM), and product formation was monitored by measuring the fluorescence intensity every 20 s for 5 min (SIRT2) in a BioTek Synergy H1 microplate reader at λex = 320 nm and λem = 408 nm (gain = 130 and read height = 7 mm). Initial rates were determined using the plot of fluorescence vs. time for linear portions of each curve. IC50 values were then determined using GraphPad Prism to fit a nonlinear regression to the normalized rates vs. inhibitor concentration.
# [3] = target: T2, SIRT1; experiment: Continuous fluorogenic sirtuin inhibition assay, SIRT1; format: biochemical; conditions: mean ± SD of two independent experiments
# Description: The continuous assay for comparing isoform specificity of S2P04 was performed using the universal fluorogenic sirtuin substrate described by Schuster et al.[41]. Briefly, the inhibition reactions were performed in 50-µL volumes at 37 °C in black, half-area, 96-well plates. The sirtuin enzyme (0.25 µM) was preincubated with different concentrations of the peptide S2P04 (0.0064–50 µM for SIRT1 and SIRT2, 0.5–100 µM for SIRT3) or TB (0.16–150 µM for SIRT1–SIRT3), and 1 mM NAD^+ in assay buffer (20 mM Tris, pH 7.8, 150 mM NaCl, 5 mM MgCl2, and 1 mM DTT) for 15 min. Following incubation, the reaction started with the addition of the fluorogenic substrate (5 µM), and product formation was monitored by measuring the fluorescence intensity every 20 s for 5 min (SIRT2) or 30 min (SIRT1 and SIRT3) in a BioTek Synergy H1 microplate reader at λex = 320 nm and λem = 408 nm (gain = 130 and read height = 7 mm). Initial rates of product formation were determined by a linear regression of the plot of fluorescence intensity vs. time and normalized relative to 0% (max inhibitor) and 100% (no inhibitor) controls. The assay was repeated to determine the IC50 values of all BuK peptides for SIRT2. IC50 values were determined by nonlinear regression of the plot of the normalized initial rate vs. inhibitor concentration using GraphPad Prism. The determined IC50 values are provided in Supplementary Table 2, and inhibition curves can be seen in Supplementary Fig. 20.
# [4] = tested on: amber-obligate phagemid library; experiment: Phage yield on expression of the amber-obligate phagemid library with ncAAs (cfu assay); parameters: species or system E. coli Top10; conditions: BuKRS
# [5] = target: FITC-conjugated S2P03; experiment: fluorescence polarisation; SIRT2 serially diluted from 5 uM to 1 nM (24 uL) plus 1 uL of 250 nM FITC-peptide; 50 mM Tris, 137 mM NaCl, 2.7 mM KCl, 1 mM MgCl2, 1 mM DTT, 0.01% Triton X-100, pH 8.0; 37 C for 15-30 min; 384-well plate
molecule,measurement,setting,value
CCCCCCCCCCCCCC(=S)NCCCC[C@H](NC(=O)[C@@H](NC(=O)[C@@H](NC(=O)[C@@H](N)CS)[C@@H](C)O)C(C)C)C(=O)N[C@H](C(=O)N[C@@H](CO)C(=O)N[C@@H](CC(C)C)C(N)=O)[C@@H](C)O [S2P03-tMyK] (H-CTV[Lys(thiomyristoyl)]TSL-NH2),change in IC50 without preincubation of enzyme,[1],insignificant change in IC50
same,IC50,"[2]; 10 nM SIRT2, 15 min preincubation, 5 µM substrate, n = 2",10 ± 3 nM
same,activity at 0.000465917 µM,[2]; inhibitor 0.465917 nM,102%
same,"%Activity, SIRT2","[2]; inhibitor 0.465917 nM, 0.000465917 µM",98.0615%
same,"%Activity, SIRT2","[2]; inhibitor 0.931834 nM, 0.000931834 µM",113.937% and 81.1704%
same,activity at 0.00186367 µM,[2]; inhibitor 1.86367 nM,99.7%
same,"%Activity, SIRT2","[2]; inhibitor 1.86367 nM, 0.00186367 µM",95.1685%
same,activity at 0.00372734 µM,[2]; inhibitor 3.72734 nM,96.6%
same,"%Activity, SIRT2","[2]; inhibitor 3.72734 nM, 0.00372734 µM",82.1027%
same,"%Activity, SIRT2","[2]; inhibitor 7.45468 nM, 0.00745468 µM",52.8299% and 73.9018%
same,activity at 0.0149094 µM,[2]; inhibitor 14.9094 nM,40.8%
same,"%Activity, SIRT2","[2]; inhibitor 14.9094 nM, 0.0149094 µM",45.2416%
same,"%Activity, SIRT2","[2]; inhibitor 477.099 nM, 0.477099 µM",3.151% and -3.151%
same,"%Activity, SIRT2","[2]; inhibitor 954.198 nM, (Activity/Activity w/o inhibitor)*100, single trials, 0.954198 µM",11.9872% and 2.232%
same,IC50,[3],400 ± 100 nM
"CCCC(=O)NCCCC[C@H](N)C(=O)O [compound 5, N ^Ɛ-butyryl-L-lysine]",fold increase in particle yield vs no ncAA,[4],~100 fold
recombinant human SIRT2 (enzyme) MAEPDPSHPLETQAGKVQEAQDSDSDSEGGAAGGEADMDFLRNLFSQTLSLGSQKERLLDELTLEGVARYMQSERCRRVICLVGAGISTSAGIPDFRSPSTGLYDNLEKYHLPYPEAIFEISYFKKHPEPFFALAKELYPGQFKPTICHYFMRLLKDKGLLLRCYTQNIDTLERIAGLEQEDLVEAHGTFYTSHCVSASCRHEYPLSWMKEKIFSEVTPKCEDCQSLVKPDIVFFGESLPARFFSCMQSDFLKVDLLLVMGTSLQVQPFASLISKAPLSTPRLLINKEKAGQSDPFLGMIMGLGGGMDFDSKKAYRDVAWLGECDQGCLALAELLGWKKELEDLVRREHASIDAQSGAGVPNPSTSASPKKSPPPAKDEARTTEREKPQ,Kd,[5],49 nM
